The record followed here is ChEMBL document CHEMBL2331088, “An α-carbonic anhydrase from the thermophilic bacterium Sulphurihydrogenibium azorense is the fastest enzyme known for the CO2 hydration reaction” (Bioorg Med Chem, 2013).

Test [1] can be described thus: Inhibition of Helicobacter pylori alpha-carbonic anhydrase preincubated for 15 mins by CO2 hydration stopped-flow assay.
The nature of test [2]: Inhibition of Sulfurihydrogenibium azorense carbonic anhydrase preincubated for 15 mins by CO2 hydration stopped-flow assay.
A short description of test [3]: Inhibition of Sulfurihydrogenibium yellowstonense YO3AOP1 carbonic anhydrase preincubated for 15 mins by CO2 hydration stopped-flow assay.

Broadly, the Ki is a measure of affinity in units of concentration, obtained from inhibition or displacement. `Br` [BROMIDE]: the values for the Ki in test [1], in test [2] and in test [3] were 2410 µM, 940 µM and 49000 µM, respectively.
Regarding `O=S(O)O` [SULFUROUS ACID], the Ki in test [1] was 990 µM; in test [2], 950 µM; in test [3], 21100 µM.
For `O=S(=O)(O)O` [SULFURIC ACID], the Ki is 820 µM in test [1], 10000 µM in test [2] and 820 µM in test [3].
Take `N=C=S` [ISOTHIOCYANATE]: the inhibition constant Ki was found to be 4100 µM in test [1], 580 µM in test [2] and 710 µM in test [3].
On to `CC(=O)Nc1nnc(S(N)(=O)=O)s1` [ACETAZOLAMIDE], for which the Ki in test [2] worked out at 0.0009 µM; in test [3] it was 0.004 µM.
Turning to `S=C(S)S` [CARBONOTRITHIOIC ACID], the inhibition constant (Ki) in test [1] worked out at 380 µM; in test [2] it was 39 µM; in test [3], 60 µM.
Taken in the same sequence, the figures for `F` [FLUORIDE ION] were 4080 µM, 980 µM and 417000 µM.
Take `O=C(O)O` [BICARBONATE]: the inhibition constant Ki stood at 15700 µM in test [2] and 33200 µM in test [3].
For the molecule `Cl` [HYDROCHLORIC ACID], the Ki was 2700 µM in test [1], 850 µM in test [2] and 8300 µM in test [3].
In the case of `I` [IODIDE], the Ki in test [1] was determined as 6050 µM; in test [2], 870 µM; in test [3] it was 860 µM.
In the case of `S` [HYDROGEN SULFIDE], the Ki was 380 µM in test [2] and 580 µM in test [3].
Regarding `N=C=[Se]` [ISOSELENOCYANATE], the Ki in test [1] is 730 µM; in test [2] it was 490 µM; in test [3], 70 µM.
Taken in the same sequence, the figures for `CCN(CC)C(=S)S` [DITIOCARB] were 5 µM, 3.1 µM and 4 µM.
Taken in the same sequence, the figures for `NS(=O)(=O)O` [SULFAMATE] were 80 µM, 4.8 µM and 42 µM.
